The text below walks through data of patent US5616715A, “Dihydropyridine-3, 5-dicarboxylic acid ester derivatives” (Yamanouchi Pharmaceutical Co., Ltd., priority 1984, dated 1997).

Where a name gives a salt, the structure may show the parent alone.

The test system of one data set is coronary artery. The data set is described as follows: Coronary Vasodilating Effect in Anesthetized Dogs (direct intracoronary administration). Format: in vivo. The following applies: 1 μg directly into coronary artery; for Overall increase in coronary blood flow at 1 μg: area under the percent increase in coronary blood flow. Here is the method: (1) Coronary Vasodilating Effect in Anesthetized Dogs
In open-chest dogs anesthetized with 30 mg/kg i.v. of pentobarbital sodium, arterial blood from the carotid artery was led to circumflex branch of the left coronary artery by a extracorporeal loop. A servocontrolled pure (model 1215D, Harvard Apparatus) was incorporated in the circuit to maintain a constant perfusion pressure of 120 mmHg by means of a pump controller (SCS-22, Data Graph Co., Tokuya Tukada et al., Folia Pharmacol. Japon, 74, 59p, 1978). An electromagnetic flow probe of extracorporeal type (MF-25, Nihon Koden) was also inserted in the circuit to record coronary blood flow. A dose of 1 μg of the compound was administered directly into the coronary artery and then coronary blood flow was monitored until the blood flow returned to the pretreatment value. And then, the area under the percent increase in coronary blood flow after intracoronary injection of 1 μg of the compound was calculated and used as an index of the overall increase in coronary blood flow.

A short description of data set [1]: Hypotensive Effect in Anesthetized Rats. The class given is in vivo. As to conditions: for ED (30 mmHg): Rattus norvegicus, iv, urethane-anesthetized rats, dose required to lower mean blood pressure by 30 mmHg. As for the experimental part:
(2) Hypotensive Effect in Anesthetized Rats
Blood pressure was measured in urethane-anesthetized rats. The compound was intravenously administered in an increasing dose manner at an interval of 20 minutes. The doses of the compounds required to lower mean blood pressure by 30 mmHg (ED 30 mmHg) was calculated from the dose-response curves and summarized in Table 2.

The nature of another data set: Acute Toxicity in Mice. As to conditions: mouse, in vivo; oral, six weeks old male ICR mice, suspended in 0.5% methylcellulose; Litchfield & Wilcoxon. As for the experimental part: (3) Acute Toxicity in Mice
Six weeks old and male ICR mice weighing 27 to 29 g were used. The compound was suspended in 0.5% methylcellulose solution and administered orally to mice. The LD50 values of the compounds were calculated by the method of Litchfield & Wilcoxon (Journal of Pharmacol. & Exp. Therap., 96, 99-113, 1949) and summarized in Table 3.

The conditions of data set [2]: U.S. Pat. No. 4,220,649; U. K. Patent No. 2,014,134; cited from earlier work.

For the molecule `COC(=O)C1=C(C)NC(C)=C(C(=O)OC2CCN(Cc3ccccc3)C2)C1c1cccc([N+](=O)[O-])c1` (racemic) [Diastereoisomer B (dl form) hydrochloride], in the data set on coronary artery, the Duration of the action is 5 min and the “Overall increase in coronary blood flow at 1 μg” value (“Overall increase” below) is 120 ± 28 %, min. Besides, the ED (30 mmHg) in data set [1] is 0.14 mg/kg.
As for `COC(=O)C1=C(C)NC(C)=C(C(=O)OC2CCN(Cc3ccccc3)C2)C1c1cccc([N+](=O)[O-])c1` (racemic) [Equivalent mixture of the hydrochlorides of diastereoisomers], in the data set on coronary artery, the Duration of the action was 10 min and the “Overall increase” value is 129 ± 47 %, min.
Regarding `COC(=O)C1=C(C)NC(C)=C(C(=O)O[C@H]2CCN(Cc3ccccc3)C2)C1c1cccc([N+](=O)[O-])c1` (single isomer, unassigned) [Diastereoisomer A (d form) hydrochloride], in the data set on coronary artery, the Duration of the action stood at 120 min and the “Overall increase” value was 4559 ± 894 %, min. The same molecule came in with an LD50 in the data set “Acute Toxicity in Mice” of 190 mg/kg.
On to `COC(=O)C1=C(C)NC(C)=C(C(=O)OC2CCN(Cc3ccccc3)C2)C1c1cccc([N+](=O)[O-])c1` (single isomer, unassigned) [Diastereoisomer A (dl form) hydrochloride, 2,6-dimethyl-4-(3-nitro-phenyl)-1,4-dihydropyridine-3,5-dicarboxylic acid 3-(1-benzylpyrrolidin-3-yl)ester 5-methyl ester], for which, in the data set on coronary artery, the Duration of the action stood at 60 min and the “Overall increase” value is 1816 ± 377 %, min. Further, the ED (30 mmHg) in data set [1] was 0.002 mg/kg. Also, in data set [1] (anesthetized rats, i.v.), the “hypotensive activity, potency ratio to diastereoisomer B hydrochloride” value is on record as “about 70 times”. Moreover, the LD50 in “Acute Toxicity in Mice” stood at 295 mg/kg.
In the case of `COC(=O)C1=C(C)NC(C)=C(C(=O)OC2CCN(Cc3ccccc3)C2)C1c1cccc([N+](=O)[O-])c1` (stereo not drawn) [YM-09730, 2,6-dimethyl-4-(3-nitropheny)-1,4-dihydropyridine-3,5-dicarboxylic acid 3-(1-benzylpyrrolidin-3-yl)ester 5-methyl ester], in data set [2], the “duration of the vasodilating and hypotensive effect” value was “prolonged effect”; the “vasodilating activity and hypotensive activity” value was “has a vasodilating activity and a hypotensive activity”.

Broadly, the LD50 is the dose expected to kill half of the subjects tested.
